Results on two compounds are retold here after US20250345419A1, “TREATING CHEMORESISTANT CANCERS WITH NOTCH3 INHIBITORS” (Mayo Foundation for Medical Education and Research, priority 2022, published 2025).

Structures are written as SMILES. Entries after “also recorded” stand apart in the source; their conditions may differ.

One series concerns TNBC-M25 3D-MPS. Put plainly: TNBC-M25 mammosphere growth (area, Image-J). The class given is cell-based, human. Here is the method:
FIGS. 4A and 4B show NOTCH3 genetic targeting in TNBC-M25 mammospheres. FIG. 4A includes images of TNBCM25 single-cell dilutions grown under non-adherent conditions. After 48 hours of incubation, mammospheres were treated with 5 nM (½ IC50) or 10 nM (IC50) docetaxel (DTX) for 10 days. FIG. 4B is a graph plotting mammosphere area measured using the NIH Image-J software. Three independent experiments were performed in triplicate (±S.D.).
(§1) Mammospheres Formation: Human breast cancer cells were plated in ultra-low attachment 24-well and 96-well culture dishes in 100 μL of MAMMOCULT™ medium (STEMCELL™ Technologies; Vancouver, BC, Canada). Medium was added every 2 days for a maximum of 8 days. Mammospheres were trypsinized and expanded every 8 days to form tertiary mammospheres, and their growth was recorded through a digital camera (Nikon).
Mammosphere Formation: Human breast cancer cells were plated in ultra-low attachment 24- and 96-well culture dishes in 100 μL of MAMMOCULT™ medium (STEMCELL™ Technologies), and medium was added every 2 days for a maximum of 8 days. Mammospheres were trypsinized and expanded every 8 days to form tertiary mammospheres, and their growth was recorded through a digital camera (Nikon).

In series [1] the test system is 3D-MPS derived from SUM149-PT cells. Put plainly: Real-time growth of RFP-tagged 3D-mammospheres (3D-MPS). Format: cell-based, human. Conditions: SUM149-PT 3D-MPS, AV-353 100 ng and/or DTX 5 nM, 96 hours. Here is the method:
FIGS. 7A and 7B show results from treatment of 3D-mammospheres (3D-MPS) of SM149-PT TNBC cells with AV-353 (½ IC50: 100 ng) and/or DTX (½ IC50: 5 nM). FIG. 7A includes representative images of RFP-tagged 3DMPS before and after treatment with AV-353 (½ IC50: 100 ng) and/or DTX (½ IC50: 5 nM) for 96 hours, using Annexin-V (red) as a marker of early apoptosis. FIG. 7B is a graph plotting real-time growth of RFP-tagged 3D-MPS before and after treatment with AV-353 (½ IC50: 100 ng) and/or DTX (½ IC50: 5 nM) for 96 hours. 3D-MPS growth was quantified using the INCUCYTE® Cell Player System. Three independent experiments were performed in triplicate (±S.D.).
as §1
Real-Time Cell Proliferation, Cytotoxicity and Apoptosis Assays: 5,000 cells were plated in Costar […] plates, treated with Docetaxel (DTX) and/or AV-353 (as monotherapy or in combination). Cell proliferation was monitored in real-time by GFP or RFP fluorescence intensity, and Red Annexin-V was used as an early marker of apoptosis. […]

Series [2] can be described thus: Toxicology studies, PTX with escalating doses of AV-353. Conditions: PTX 10 mg/Kg, AV-353 100, 200, 400 ug. The class given is in vivo, female NSG mice. The procedure: FIG. 17 is a series of graphs plotting liver toxicity in mice treated with saline (CON), paclitaxel 10 mg/Kg (PTX), paclitaxel 10 mg/Kg+AV-353 100 ug (PTX+AV100), paclitaxel 10 mg/Kg+AV-353 200 ug (PTX+AV200), or paclitaxel 10 mg/Kg+AV-353 400 ug (PTX+AV400), based on measurements of liver function indicators: alanine aminotransferase (ALT), aspartate aminotransferase (AST), alkaline phosphatase (ALP), and total bilirubin (TBIL), as well as an indicator of kidney function (creatinine; CRE), and an indicator of general nutritional status (albumin; ALB). Blood samples (1 ml) were collected from animals, and liver enzyme analysis was carried out using a VETSCAN® instrument (Zoetis; Parsippany, NJ).
Toxicology studies: Female NSG mice received saline solution (control) or 10 mg/Kg paclitaxel (PTX) as monotherapy or in combination with escalating doses of AV-353 (AV100 ug, AV200 ug, and AV400 ug). PTX and AV-353 were administered intraperitoneally 3 times per week for 4 weeks. […] After drug treatment, animals were euthanized and organs of interest (liver and stomach) were paraffin embedded, sectioned, and hematoxylin and eosin stained. […] Although no liver damage was detected at the morphological or histological level, further studies were conducted to determine the extent to which the drug treatments induced an increase of liver enzymes. […]

In the series on TNBC-M25 3D-MPS (Homo sapiens, TNBC-M25 mammospheres), `CC(=O)O[C@@]12CO[C@@H]1C[C@H](O)[C@@]1(C)C(=O)[C@H](O)C3=C(C)[C@@H](OC(=O)[C@H](O)[C@@H](NC(=O)OC(C)(C)C)c4ccccc4)C[C@@](O)([C@@H](OC(=O)c4ccccc4)[C@H]21)C3(C)C` [DTX, docetaxel] registered an IC50 of 10 nM. In the series with TNBC-M25 3D-MPS (TNBC-M25 3D-MPS), the 3D-MPS growth result is “did not inhibit 3D MPS growth”. The “mammosphere (3D-MPS) growth” value in series [1] is on record as “small effect on growth”.
Turning to `CC(=O)O[C@H]1C(=O)[C@@]2(C)[C@H]([C@H](OC(=O)c3ccccc3)[C@]3(O)C[C@H](OC(=O)[C@H](O)[C@@H](NC(=O)c4ccccc4)c4ccccc4)C(C)=C1C3(C)C)[C@]1(OC(C)=O)CO[C@@H]1C[C@@H]2O` [PTX, paclitaxel], in series [2] (3 times per week for 4 weeks), the “liver and stomach histology (H&E)” value is “No significant damage; also recorded: no significant changes in the architecture of liver and stomach tissue”. The body weight result in series [2] (intraperitoneally 3 times per week for 4 weeks) is “did not induce body weight loss”.
